Data published in patent US8415469B2, “Compounds and methods for kinase modulation, and indications therefor” (Plexxikon Inc., priority 2005, dated 2013).

Key:
Assay type in all cases: biochemical
B-Raf = molecular target: T1, B-Raf (Homo sapiens, UniProt P15056); assay: AlphaScreen kinase assay, B-Raf; details: read-out: IC50, activity toward kinase B-Raf
T1 construct: purchased Upstate Biotechnology

Kit = molecular target: T2, Kit (Homo sapiens, UniProt P10721); assay: AlphaScreen kinase assay, Kit; details: read-out: IC50, activity toward kinase Kit
T2 construct: P1332.N6 BI PTP KIT M552-K948-X COD; His6 (N); made in house; host or cells: E. coli (PTP1B co-expressed)

B-Raf V600E = molecular target: T3, B-Raf V600E (Homo sapiens, UniProt P15056, V600E); assay: AlphaScreen kinase assay, B-Raf V600E; details: read-out: IC50, activity toward kinase B-Raf V600E
T3 construct: P4254. pFastBacBD-CDC37 BRAF D437-K722-X, V600E; His6 with pFastBac HT leader (TEV site) (N); made in house; host or cells: Sf9 (baculovirus; chaperone CDC37 co-expressed)

Fms = molecular target: T4, Fms (Homo sapiens, UniProt P07333); assay: AlphaScreen kinase assay, Fms; details: read-out: IC50, activity toward kinase Fms
T4 construct: purchased Upstate Biotechnology

FGFR1 = molecular target: T5, FGFR1 (Homo sapiens, UniProt P11362, C488A/C584S); assay: AlphaScreen kinase assay, FGFR1; details: read-out: IC50, activity toward kinase FGFR
T5 construct: P1351.pET N6 BI-PTP FGFR A458-E765-X C488A, C584S; made in house; host or cells: E. coli (PTP1B co-expressed)
T5 sequence (P11362 458-765 C488A/C584S): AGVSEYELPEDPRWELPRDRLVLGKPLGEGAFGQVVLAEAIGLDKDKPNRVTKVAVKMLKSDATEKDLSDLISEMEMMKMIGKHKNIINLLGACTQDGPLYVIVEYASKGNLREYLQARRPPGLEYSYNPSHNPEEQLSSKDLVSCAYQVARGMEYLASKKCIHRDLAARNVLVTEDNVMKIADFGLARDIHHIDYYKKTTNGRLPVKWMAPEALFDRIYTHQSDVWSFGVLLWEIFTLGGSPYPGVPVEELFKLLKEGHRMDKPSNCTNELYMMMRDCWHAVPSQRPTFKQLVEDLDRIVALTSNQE

T3 sequence (P15056 with tags, fused parts or gaps V600E): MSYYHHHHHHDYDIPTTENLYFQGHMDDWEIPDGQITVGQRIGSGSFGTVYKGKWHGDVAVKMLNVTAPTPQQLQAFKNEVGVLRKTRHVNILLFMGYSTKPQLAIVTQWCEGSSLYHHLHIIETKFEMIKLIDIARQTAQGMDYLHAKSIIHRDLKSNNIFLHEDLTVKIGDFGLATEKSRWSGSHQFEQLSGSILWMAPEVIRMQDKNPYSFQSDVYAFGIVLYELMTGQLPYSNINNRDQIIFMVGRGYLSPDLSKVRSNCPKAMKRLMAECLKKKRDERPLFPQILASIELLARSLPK
T2 sequence (P10721 with tags, fused parts or gaps): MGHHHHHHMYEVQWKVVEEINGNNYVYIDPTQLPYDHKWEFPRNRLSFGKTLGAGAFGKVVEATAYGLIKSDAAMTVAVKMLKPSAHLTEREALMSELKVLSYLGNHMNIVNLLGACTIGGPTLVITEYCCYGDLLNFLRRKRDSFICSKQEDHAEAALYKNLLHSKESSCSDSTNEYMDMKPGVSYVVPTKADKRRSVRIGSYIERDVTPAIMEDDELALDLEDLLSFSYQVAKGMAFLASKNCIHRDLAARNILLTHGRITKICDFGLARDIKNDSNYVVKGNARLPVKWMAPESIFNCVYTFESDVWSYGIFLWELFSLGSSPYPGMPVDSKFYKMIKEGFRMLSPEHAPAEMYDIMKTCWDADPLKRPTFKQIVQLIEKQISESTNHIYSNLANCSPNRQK
T1 sequence (P15056 whole entry): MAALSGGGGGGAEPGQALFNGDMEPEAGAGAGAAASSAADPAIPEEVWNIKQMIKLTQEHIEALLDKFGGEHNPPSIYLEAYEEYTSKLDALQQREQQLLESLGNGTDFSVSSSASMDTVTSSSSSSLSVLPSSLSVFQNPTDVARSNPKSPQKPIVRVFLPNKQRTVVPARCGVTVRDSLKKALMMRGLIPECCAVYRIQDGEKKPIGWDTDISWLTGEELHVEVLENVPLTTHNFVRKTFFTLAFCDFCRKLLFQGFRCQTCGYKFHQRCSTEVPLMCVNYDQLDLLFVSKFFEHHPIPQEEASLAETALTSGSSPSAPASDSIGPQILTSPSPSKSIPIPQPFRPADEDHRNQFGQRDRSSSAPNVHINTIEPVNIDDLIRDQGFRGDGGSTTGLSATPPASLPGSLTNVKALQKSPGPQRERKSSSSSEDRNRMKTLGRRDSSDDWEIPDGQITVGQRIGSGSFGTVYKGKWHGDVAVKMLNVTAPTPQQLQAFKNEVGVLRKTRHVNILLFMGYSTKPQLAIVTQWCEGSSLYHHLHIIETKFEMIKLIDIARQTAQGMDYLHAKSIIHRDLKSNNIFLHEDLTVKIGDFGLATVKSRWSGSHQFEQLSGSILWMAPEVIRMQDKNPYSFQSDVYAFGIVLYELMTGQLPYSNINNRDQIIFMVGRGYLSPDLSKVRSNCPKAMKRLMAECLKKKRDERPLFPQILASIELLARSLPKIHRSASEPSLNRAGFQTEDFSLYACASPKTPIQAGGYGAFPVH
T4 sequence (P07333 20-972): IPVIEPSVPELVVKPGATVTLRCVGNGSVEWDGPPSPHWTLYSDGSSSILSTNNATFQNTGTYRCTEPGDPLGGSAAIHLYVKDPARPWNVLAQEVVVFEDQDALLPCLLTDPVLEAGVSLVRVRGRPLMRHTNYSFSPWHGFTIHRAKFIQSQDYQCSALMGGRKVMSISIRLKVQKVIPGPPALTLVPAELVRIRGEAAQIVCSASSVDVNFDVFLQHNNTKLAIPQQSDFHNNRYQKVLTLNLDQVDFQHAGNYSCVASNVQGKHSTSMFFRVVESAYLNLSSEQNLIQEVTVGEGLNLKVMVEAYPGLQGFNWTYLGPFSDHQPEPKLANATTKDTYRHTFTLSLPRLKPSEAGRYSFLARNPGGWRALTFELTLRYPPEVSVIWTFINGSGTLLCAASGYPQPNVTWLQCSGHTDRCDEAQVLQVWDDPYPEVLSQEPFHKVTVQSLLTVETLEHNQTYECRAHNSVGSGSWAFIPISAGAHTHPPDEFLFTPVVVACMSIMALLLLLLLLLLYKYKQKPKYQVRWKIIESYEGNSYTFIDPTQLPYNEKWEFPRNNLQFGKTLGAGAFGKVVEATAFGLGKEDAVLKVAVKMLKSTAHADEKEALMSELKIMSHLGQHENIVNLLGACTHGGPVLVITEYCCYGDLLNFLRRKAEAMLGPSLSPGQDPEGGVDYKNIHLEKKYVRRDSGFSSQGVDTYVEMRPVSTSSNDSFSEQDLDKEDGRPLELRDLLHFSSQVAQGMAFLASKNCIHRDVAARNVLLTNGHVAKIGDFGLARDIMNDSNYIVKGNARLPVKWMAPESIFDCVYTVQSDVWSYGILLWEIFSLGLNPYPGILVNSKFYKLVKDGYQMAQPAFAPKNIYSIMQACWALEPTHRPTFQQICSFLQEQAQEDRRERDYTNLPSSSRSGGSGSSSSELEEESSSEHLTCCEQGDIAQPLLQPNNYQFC

Compound	IC50 (B-Raf) [µM]	IC50 (Kit) [µM]	IC50 (B-Raf V600E) [µM]	IC50 (Fms) [µM]	IC50 (FGFR1) [µM]
CCCCOc1ccc(NC(=O)Nc2cccc(C(=O)c3c[nH]c4ncc(Cl)cc34)c2)cc1 [Compound P-1741, 1-(4-Butoxy-phenyl)-3-[3-(5-chloro-1H-pyrrolo[2,3-b]pyridine-3-carbonyl)-phenyl]-urea]	≤ 10		≤ 10	≤ 10	
COc1cc(NC(=O)Nc2cccc(C(=O)c3c[nH]c4ncc(Cl)cc34)c2)cc(C(F)(F)F)c1 [Compound P-1773, 1-[3-(5-Chloro-1H-pyrrolo[2,3-b]pyridine-3-carbonyl)-phenyl]-3-(3-methoxy-5-trifluoromethyl-phenyl)-urea]	≤ 10		≤ 10	≤ 10	
Cc1ccc(NC(=O)Nc2cccc(C(=O)c3c[nH]c4ncccc34)c2)cc1 [Compound P-1718, 1-[3-(1H-Pyrrolo[2,3-b]pyridine-3-carbonyl)-phenyl]-3-p-tolyl-urea]	≤ 10	≤ 10	≤ 10	≤ 10	
COc1cc(NC(=O)Nc2cccc(C(=O)c3c[nH]c4ncccc34)c2)cc(C(F)(F)F)c1 [Compound P-1762, 1-(3-Methoxy-5-trifluoromethyl-phenyl)-3-[3-(1H-pyrrolo[2,3-b]pyridine-3-carbonyl)-phenyl]-urea]	≤ 10		≤ 10	≤ 10	
CCCS(=O)(=O)Nc1ccc(F)c(C(=O)c2c[nH]c3ncc(-c4cc(C)c(C#N)c(C)c4)cc23)c1F [Compound P-1980, Propane-1-sulfonic acid {3-[5-(4-cyano-3,5-dimethyl-phenyl)-1H-pyrrolo[2,3-b]pyridine-3-carbonyl]-2,4-difluoro-phenyl}-amide]	≤ 10	≤ 10	≤ 10	≤ 10	
O=C(Nc1cccnc1)Nc1cccc(C(=O)c2c[nH]c3ncc(Cl)cc23)c1 [Compound P-1771, 1-[3-(5-Chloro-1H-pyrrolo[2,3-b]pyridine-3-carbonyl)-phenyl]-3-pyridin-3-yl-urea]	≤ 10		≤ 10	≤ 10	
CN(C)c1ccc(NC(=O)Nc2cccc(C(=O)c3c[nH]c4ncccc34)c2)cc1 [Compound P-1780, 1-(4-Dimethylamino-phenyl)-3-[3-(1H-pyrrolo[2,3-b]pyridine-3-carbonyl)-phenyl]-urea]	≤ 10		≤ 10	≤ 10	
O=C(c1cc(NS(=O)(=O)c2cccc(F)c2)ccc1Cl)c1c[nH]c2ncc(Cl)cc12 [Compound P-1663]	≤ 10		≤ 10	≤ 10	
COCCOc1cnc2[nH]cc(C(=O)c3c(F)ccc(NS(=O)(=O)c4ccc(C(F)(F)F)cc4)c3F)c2c1 [Compound P-2005, N-{2,4-Difluoro-3-[5-(2-methoxy-ethoxy)-1H-pyrrolo[2,3-b]pyridine-3-carbonyl]-phenyl}-4-trifluoromethyl-benzenesulfonamide]	≤ 10		≤ 10	≤ 10	
COc1ccc(NC(=O)Nc2cccc(C(=O)c3c[nH]c4ncc(Cl)cc34)c2)cc1 [Compound P-1734, 1-[3-(5-Chloro-1H-pyrrolo[2,3-b]pyridine-3-carbonyl)-phenyl]-3-(4-methoxy-phenyl)-urea]	≤ 10		≤ 10	≤ 10	
COCCNC(=O)Nc1cccc(C(=O)c2c[nH]c3ncc(Cl)cc23)c1 [Compound P-1772, 1-[3-(5-Chloro-1H-pyrrolo[2 3-b]pyridine-3-carbonyl)-phenyl]-3-(2-methoxy-ethyl)-urea]	≤ 10		≤ 10	≤ 10	
COc1cnc2[nH]cc(Cc3c(F)ccc(OCc4ccccc4)c3F)c2c1 [Compound P-1804, 3-(3-Benzyloxy-2,6-difluoro-benzyl)-5-methoxy-1H-pyrrolo[2,3-b]pyridine]	≤ 10		≤ 10	≤ 10	

Second part, the compound after the results:

IC50 (B-Raf) [µM]	IC50 (Kit) [µM]	IC50 (B-Raf V600E) [µM]	IC50 (Fms) [µM]	IC50 (FGFR1) [µM]	Compound
≤ 10	≤ 10	≤ 10	≤ 10		O=C(Nc1ccc(Cl)cc1)Nc1cccc(C(=O)c2c[nH]c3ncccc23)c1 [Compound P-1709, 1-(4-Chloro-phenyl)-3-[3-(1H-pyrrolo[2,3-b]pyridine-3-carbonyl)-phenyl]-urea]
≤ 10		≤ 10	≤ 10		O=C(c1cccc(NS(=O)(=O)c2ccc(C(F)(F)F)cc2)c1)c1c[nH]c2ncccc12 [Compound P-1784]
≤ 10		≤ 10	≤ 10		COc1ccc(NC(=O)Nc2cccc(C(=O)c3c[nH]c4ncc(-c5ccc(F)cc5)cc34)c2)cc1OC [Compound P-1818, 1-(3,4-Dimethoxy-phenyl)-3-{3-[5-(4-fluoro-phenyl)-1H-pyrrolo[2,3-b]pyridine-3-carbonyl]-phenyl}-urea]
≤ 10	≤ 10	≤ 10	≤ 10		CCCS(=O)(=O)Nc1ccc(F)c(C(=O)c2c[nH]c3ncc(-c4ccc(OCCOC)cc4)cc23)c1F [Compound P-1998, Propane-1-sulfonic acid (2,4-difluoro-3-{5-[4-(2-methoxy-ethoxy)-phenyl]-1H-pyrrolo[2,3-b]pyridine-3-carbonyl}-phenyl)-amide]
≤ 10	≤ 10	≤ 10	≤ 10		COc1ccc(NC(=O)Nc2cccc(C(=O)c3c[nH]c4ncccc34)c2)cc1 [Compound P-1705, 1-(4-Methoxy-phenyl)-3-[3-(1H-pyrrolo[2,3-b]pyridine-3-carbonyl)-phenyl]-urea]
≤ 10		≤ 10	≤ 10		O=C(c1c(F)ccc(NS(=O)(=O)c2ccccc2F)c1F)c1c[nH]c2ncc(Cl)cc12 [Compound P-1912, N-[3-(5-Chloro-1H-pyrrolo[2,3-b]pyridine-3-carbonyl)-2,4-difluoro-phenyl]-2-fluoro-benzenesulfonamide]
≤ 10	≤ 10	≤ 10	≤ 10		Cn1cc(-c2cnc3[nH]cc(C(=O)c4c(F)ccc(NS(=O)(=O)c5cccc(F)c5)c4F)c3c2)cn1 [Compound P-1997, N-{2,4-Difluoro-3-[5-(1-methyl-1H-pyrazol-4-yl)-1H-pyrrolo[2,3-b]pyridine-3-carbonyl]-phenyl}-3-fluoro-benzenesulfonamide]
≤ 10		≤ 10	≤ 10		O=C(Nc1cccc(C(=O)c2c[nH]c3ncc(-c4ccc(F)cc4)cc23)c1)Nc1ccc(F)c(F)c1 [Compound P-1817, 1-(3,4-Difluoro-phenyl)-3-{3-[5-(4-fluoro-phenyl)-1H-pyrrolo[2,3-b]pyridine-3-carbonyl]-phenyl}-urea]
≤ 10		≤ 10	≤ 10		CCCS(=O)(=O)Nc1ccc(F)c(C(=O)c2c[nH]c3ncc(-c4nc(C)c[nH]4)cc23)c1F [Compound P-2006, Propane-1-sulfonic acid {2,4-difluoro-3-[5-(4-methyl-1H-imidazol-2-yl)-1H-pyrrolo[2,3-b]pyridine-3-carbonyl]-phenyl}-amide]
≤ 10		≤ 10	≤ 10		COc1cnc2[nH]cc(C(=O)c3cc(NS(=O)(=O)c4cccc(F)c4)ccc3Cl)c2c1 [Compound P-1664]
≤ 10	≤ 10	≤ 10	≤ 10		O=C(c1c(F)ccc(NS(=O)(=O)c2ccc(F)cc2)c1F)c1c[nH]c2ncc(Cl)cc12 [Compound P-1840, N-[3-(5-Chloro-1H-pyrrolo[2,3-b]pyridine-3-carbonyl)-2,4-difluoro-phenyl]-4-fluoro-benzenesulfonamide]
≤ 10		≤ 10	≤ 10		O=C(c1c(F)ccc(NS(=O)(=O)c2ccc(OC(F)F)cc2)c1F)c1c[nH]c2ncc(Cl)cc12 [Compound P-1916, N-[3-(5-Chloro-1H-pyrrolo[2,3-b]pyridine-3-carbonyl)-2,4-difluoro-phenyl]-4-difluoromethoxy-benzenesulfonamide]
≤ 10			≤ 10	≤ 10	O=C(c1ccc(F)cc1F)c1c[nH]c2ncc(-c3cccnc3)cc12 [Compound P-1555]
≤ 10		≤ 10	≤ 10		Cc1cccc(NC(=O)Nc2cccc(C(=O)c3c[nH]c4ncc(-c5ccc(F)cc5)cc34)c2)c1 [Compound P-1758, 1-{3-[5-(4-Fluoro-phenyl)-1H-pyrrolo[2,3-b]pyridine-3-carbonyl]-phenyl}-3-m-tolyl-urea]
≤ 10		≤ 10	≤ 10		O=C(Nc1ccc(C(F)(F)F)cc1)Nc1cccc(C(=O)c2c[nH]c3ncccc23)c1 [Compound P-1717, 1-[3-(1H-Pyrrolo[2,3-b]pyridine-3-carbonyl)-phenyl]-3-(4-trifluoromethyl-phenyl)-urea]
≤ 10	≤ 10	≤ 10	≤ 10		COCCOc1cnc2[nH]cc(C(=O)c3c(F)ccc(NS(=O)(=O)c4ccc(F)cc4)c3F)c2c1 [Compound P-1872, N-{2,4-Difluoro-3-[5-(2-methoxy-ethoxy)-1H-1-pyrrolo[2,3-b]pyridine-3-carbonyl]-phenyl}-4-fluoro-benzenesulfonamide]
